Reference: patent US12564582B2 (Prilenia Neurotherapeutics Ltd., priority 2016, dated 2026)
Where two headings read alike, the source gives them in different places.

Key:
[1] = test system: patients with Huntington's disease;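 as to Δ to placebo, change from baseline in UHDRS TMS Finger Taps: finger tapping item rates tapping with fingers of both hands, normal being 15 taps within 5 s, the combined score adds forearm pronation and supination on each side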
Description: These variables were analyzed in the same way as the primary efficacy endpoint except that the variable evaluation at baseline were included in the model instead of baseline UHDRS-TMS.

[2] = test system: patients with Huntington's disease; details: Week 52;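 as to Δ to placebo, change from baseline in UHDRS TMS Finger Taps: finger tapping item rates tapping with fingers of both hands, normal being 15 taps within 5 s, the combined score adds forearm pronation and supination on each side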
Description: Motor deficits can be objectively assessed using different Q-Motor assessments. All Q-Motor assessments are based on the application of precalibrated and temperature controlled force transducers and 3-dimensional position sensors with very high sensitivity and test-retest reliability across sessions and sites in a multicenter clinical study. Q-Motor measures thus aim to reduce the limited sensitivity of categorical clinical rating scales, the intra- and inter-rater variability, and placebo effects observed in scales such as UHDRS-TMS. In addition, Q-Motor assessments allow for the objective monitoring of unintended motor side-effects in clinical studies. Thus, Q-Motor is an objective, reliable, and sensitive measure of motor function that is free of rater bias and limits placebo effect influence.
This task assessed the regularity of hand taps performed when alternating between the palm and dorsal surface of the hand performing a repetitive pronation/supination movement. The force and duration of the hand taps are recorded similarly to the speeded tapping task. A tone cues the start and end of an assessment. Five trials of 10 seconds duration are performed with each hand.

[3] = test system: patients with Huntington's disease; details: after 26 weeks of treatment;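 as to Δ to placebo, change from baseline in UHDRS TMS Finger Taps: finger tapping item rates tapping with fingers of both hands, normal being 15 taps within 5 s, the combined score adds forearm pronation and supination on each side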
Description: The TFC scale of the UHDRS is a standardized scale used to assess 5 functional domains associated with disability shown below (occupation, finances, domestic chores (e.g. laundry, washing dishes), activities of daily living, and care level).

[4] = test system: patients with Huntington's disease; remark: listed apart in the source;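 as to Δ to placebo, change from baseline in UHDRS TMS Finger Taps: finger tapping item rates tapping with fingers of both hands, normal being 15 taps within 5 s, the combined score adds forearm pronation and supination on each side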
Description: Finger Taps and Pronate-Supinate (P/S) hands is a combination of finger tapping (the ability to tap the fingers of both hands where 15 repetitions in 5 seconds is considered normal) with pronation/supination (the ability to rotate the forearm and hand such that the palm is down (pronation) and to rotate the forearm and hand such that the palm is up (supination) on both sides of the body).
The hand movement score is defined as the sum of UHDRS domains finger taps, pronate-supinate hands and luria (fist-hand-palm test).
An assessment of the ability to rotate the forearm and hand such that the palm is down (pronation) and to rotate the forearm and hand such that the palm is up (supination) on both sides of the body.

[5] = 90 mg bid, Week 52, all pridopidine treated patients
[6] = 112.5 mg bid, Week 26, Stage 1 BL TFC 11-13
[7] = 112.5 mg bid, Week 52, Stage 1 BL TFC 11-13
[8] = 112.5 mg bid, Week 52, all pridopidine treated patients
[9] = 45 mg bid, score at week 26, patients who have completed 52 weeks of treatment
[10] = 45 mg bid, score at week 52, patients who have completed 52 weeks of treatment
[11] = 67.5 mg bid, score at week 26, patients who have completed 52 weeks of treatment
[12] = 67.5 mg bid, score at week 52, patients who have completed 52 weeks of treatment
[13] = 90 mg bid, score at week 26, patients who have completed 52 weeks of treatment
[14] = 90 mg bid, score at week 52, patients who have completed 52 weeks of treatment
[15] = 112.5 mg bid, score at week 26, patients who have completed 52 weeks of treatment
[16] = 112.5 mg bid, score at week 52, patients who have completed 52 weeks of treatment

## CCCN1CCC(c2cccc(S(C)(=O)=O)c2)CC1 [pridopidine, 4-[3-(methylsulfonyl)phenyl]-1-propyl-piperidine]
[1]; [5]
  Δ to placebo, change from baseline in UHDRS TMS Excluding Chorea: 1.67
  Δ to placebo, change from baseline in UHDRS TMS Involuntary Movements: −0.26
[1]; 112.5 mg bid, Week 26, ALL
  Δ to placebo, change from baseline in UHDRS TMS Excluding Dystonia: 2.4
  Δ to placebo, change from baseline in UHDRS TMS Involuntary Movements: 0.76
[1]; [6]
  Δ to placebo, change from baseline in UHDRS TMS Excluding Dystonia: −4.31
  Δ to placebo, change from baseline in UHDRS TMS Involuntary Movements: −1.64
[1]; [7]
  Δ to placebo, change from baseline in UHDRS TMS Excluding Chorea: −1.59
  Δ to placebo, change from baseline in UHDRS TMS Involuntary Movements: 0.8
[1]; [8]
  Δ to placebo, change from baseline in UHDRS TMS Excluding Chorea: 1.94
  Δ to placebo, change from baseline in UHDRS TMS Involuntary Movements: 0.57
[2]; 45 mg bid, FAS
  Wk 52 Δ to placebo, change from baseline in Q-Motor: Pro-Sup-Frequency-MN-Hand: 0.0599 Hz
[2]; 45 mg bid, HD1 and HD2 patients
  Wk 52 Δ to placebo, change from baseline in Q-Motor: Pro-Sup-Frequency-MN-Hand: 0.1195 Hz
[2]; 67.5 mg bid, FAS
  Wk 52 Δ to placebo, change from baseline in Q-Motor: Pro-Sup-Frequency-MN-Hand: −0.0124 Hz
[2]; 67.5 mg bid, HD1 and HD2 patients
  Wk 52 Δ to placebo, change from baseline in Q-Motor: Pro-Sup-Frequency-MN-Hand: 0.0548 Hz
[2]; 90 mg bid, FAS
  Wk 52 Δ to placebo, change from baseline in Q-Motor: Pro-Sup-Frequency-MN-Hand: −0.0087 Hz
[2]; 90 mg bid, HD1 and HD2 patients
  Wk 52 Δ to placebo, change from baseline in Q-Motor: Pro-Sup-Frequency-MN-Hand: 0.0575 Hz
[2]; 112.5 mg bid, FAS
  Wk 52 Δ to placebo, change from baseline in Q-Motor: Pro-Sup-Frequency-MN-Hand: 0.0127 Hz
[2]; 112.5 mg bid, HD1 and HD2 patients
  Wk 52 Δ to placebo, change from baseline in Q-Motor: Pro-Sup-Frequency-MN-Hand: 0.08 Hz
[3]
  Total Functional Capacity (TFC): trends favoring pridopidine
[4]; 45 mg bid, Week 26, ALL
  Δ to placebo, change from baseline in UHDRS TMS Finger Taps: −0.3
[4]; 45 mg bid, Week 26, BL TFC≥9, CAG Repeats <44, BL TMS 1st 3 Qs
  Δ to placebo, change from baseline in UHDRS TMS Finger Taps: −0.87
[4]; 45 mg bid, Week 26, BL TFC≥9 and CAG Repeats>44
  Δ to placebo, change from baseline in UHDRS TMS Finger Taps: −0.86
[4]; [9]
  Δ to placebo, change from baseline in UHDRS TMS Finger Tapping+Pronate-Supinate Hands: −0.79
  Δ to placebo, change from baseline in UHDRS TMS Finger Taps: −0.59
[4]; [10]
  Δ to placebo, change from baseline in UHDRS TMS Finger Tapping+Pronate-Supinate Hands: −0.37
  Δ to placebo, change from baseline in UHDRS TMS Finger Taps: −0.31
[4]; 67.5 mg bid, Week 26, ALL
  Δ to placebo, change from baseline in UHDRS TMS Finger Taps: −0.07
[4]; 67.5 mg bid, Week 26, BL TFC≥9, CAG Repeats <44, BL TMS 1st 3 Qs
  Δ to placebo, change from baseline in UHDRS TMS Finger Taps: −0.36
[4]; 67.5 mg bid, Week 26, BL TFC≥9 and CAG Repeats>44
  Δ to placebo, change from baseline in UHDRS TMS Finger Taps: −0.34
[4]; [11]
  Δ to placebo, change from baseline in UHDRS TMS Finger Tapping+Pronate-Supinate Hands: 0.02
  Δ to placebo, change from baseline in UHDRS TMS Finger Taps: −0.13
[4]; [12]
  Δ to placebo, change from baseline in UHDRS TMS Finger Tapping+Pronate-Supinate Hands: 0.68
  Δ to placebo, change from baseline in UHDRS TMS Finger Taps: 0.13
[4]; 90 mg bid, Week 26, ALL
  Δ to placebo, change from baseline in UHDRS TMS Finger Taps: −0.07
[4]; 90 mg bid, Week 26, BL TFC≥9, CAG Repeats <44, BL TMS 1st 3 Qs
  Δ to placebo, change from baseline in UHDRS TMS Finger Taps: −0.54
[4]; 90 mg bid, Week 26, BL TFC≥9 and CAG Repeats>44
  Δ to placebo, change from baseline in UHDRS TMS Finger Taps: −0.52
[4]; [13]
  Δ to placebo, change from baseline in UHDRS TMS Finger Tapping+Pronate-Supinate Hands: 0.02
  Δ to placebo, change from baseline in UHDRS TMS Finger Taps: −0.01
[4]; [14]
  Δ to placebo, change from baseline in UHDRS TMS Finger Tapping+Pronate-Supinate Hands: 0.48
  Δ to placebo, change from baseline in UHDRS TMS Finger Taps: 0.08
[4]; 112.5 mg bid, Week 26, ALL
  Δ to placebo, change from baseline in UHDRS TMS Finger Taps: −0.12
[4]; 112.5 mg bid, Week 26, BL TFC≥9, CAG Repeats <44, BL TMS 1st 3 Qs
  Δ to placebo, change from baseline in UHDRS TMS Finger Taps: −1.05
[4]; 112.5 mg bid, Week 26, BL TFC≥9 and CAG Repeats>44
  Δ to placebo, change from baseline in UHDRS TMS Finger Taps: −1.07
[4]; [15]
  Δ to placebo, change from baseline in UHDRS TMS Finger Tapping+Pronate-Supinate Hands: −0.23
  Δ to placebo, change from baseline in UHDRS TMS Finger Taps: −0.21
[4]; [16]
  Δ to placebo, change from baseline in UHDRS TMS Finger Tapping+Pronate-Supinate Hands: 0.28
  Δ to placebo, change from baseline in UHDRS TMS Finger Taps: 0.1
